Series [1] deals with T1, VHL (Homo sapiens, UniProt P40337).
T1 construct: expressed in transfected cells
Description: VHL HEK-293 BRET Assay (VHL NanoBRET Target Engagement Assay). The class given is cell-based. The conditions noted are these: for IC50: HEK 293 RT VHL-NanoLuc stable cells, 1 uM tracer, 2 hours, geometric mean where more than one measurement, read-out: VHL binding in cells (HEK293 nanoBRET); for Ratio cell permeability shift: ratio not defined. The protocol: (§1) The VHL NanoBRET™ Target Engagement Assay analyzes the apparent affinity of test compounds for VHL in cells by competitive displacement of a VHL NanoBRET™ tracer reversibly bound to a NanoLuc® VHL fusion protein stably expressed in the cells.
(§2) 50 nL of control compound (10 mM; parental unlabeled VHL antagonist; see structure below) and 50 nL of DMSO (negative control) were dispensed into the appropriate control wells. DMSO was backfilled to a final volume of 50 nL as required. […] Max Signal control wells consisted of DMSO only treated wells. Minimum Signal control wells contained of 10 uM parental unlabeled VHL antagonist (control compound—see structure below). […] Background Signal control wells were prepared without tracer for background correction steps.
(§3) The raw BRET ratio values were calculated by dividing the acceptor emission value (610 nm) by the donor emission value (460 nm) for each sample. To correct for background, the BRET ratio in the absence of tracer (average of no-tracer control samples) was subtracted from the BRET ratio of each sample. Raw BRET units were converted to milliBRET units (mBU) by multiplying each raw BRET value by 1,000. The normalized NanoBRET™ signal was calculated relative to the Max Signal control wells (DMSO treated control wells) and the Minimum Signal control wells. Percentage inhibition was calculated relative to the Minimum Signal control and Maximum Signal control wells. IC50 values were derived by four parameter curve fitting using the Robust method.
(Bioluminescence resonance energy transfer reports proximity on the nanometre scale.)

Series [2] has as its target T1, VHL. Put plainly: VHL nanoBRET (+ Digitonin). Format: cell-based. The protocol: as §1, §2, §3

T1 sequence (P40337 whole entry): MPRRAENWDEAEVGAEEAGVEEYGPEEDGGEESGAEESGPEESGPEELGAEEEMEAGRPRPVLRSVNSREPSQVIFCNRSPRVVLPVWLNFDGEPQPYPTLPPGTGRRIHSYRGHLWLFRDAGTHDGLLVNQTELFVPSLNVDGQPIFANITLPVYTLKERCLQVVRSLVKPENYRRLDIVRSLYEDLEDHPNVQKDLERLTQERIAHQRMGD

`Cc1ncsc1-c1ccc(CNC(=O)[C@@H]2C[C@@H](O)CN2C(=O)[C@@H](n2cc(C3CC3)nn2)C(C)(C)c2ccccc2)cc1` [Example S26, (2S,4R)-1-((S)-2-(4-cyclopropyl-1H-1,2,3-triazol-1-yl)-3-methyl-3-phenylbutanoyl)-4-hydroxy-N-(4-(4-methylthiazol-5-yl)benzyl)pyrrolidine-2-carboxamide]: at VHL [1], the IC50 came to 0.02 µM and the “Ratio cell permeability shift” value was 1.02. On VHL [2], this molecule returned an EC50 of 0.02 µM.

Turning to `CCC(C)(C)[C@@H](C(=O)N1C[C@H](O)C[C@H]1C(=O)N[C@@H](C)c1ccc(-c2scnc2C)cc1)n1cc(C2CC2)nn1` [Example S21, (2S,4R)-1-((S)-2-(4-cyclopropyl-1H-1,2,3-triazol-1-yl)-3,3-dimethylpentanoyl)-4-hydroxy-N—((S)-1-(4-(4-methylthiazol-5-yl)phenyl)ethyl)pyrrolidine-2-carboxamide], the “Ratio cell permeability shift” value at VHL [1] was determined as 0.67. The molecule further showed an EC50 on VHL [2] of 0.01 µM.

On to `Cc1ncsc1-c1ccc([C@H](C)NC(=O)[C@@H]2C[C@@H](O)CN2C(=O)[C@@H](n2cc(C3CC3)nn2)C(C)(C)C)cc1` [Example S18, (2S,4R)-1-((S)-2-(4-cyclopropyl-1H-1,2,3-triazol-1-yl)-3,3-dimethylbutanoyl)-4-hydroxy-N—((S)-1-(4-(4-methylthiazol-5-yl)phenyl)ethyl)pyrrolidine-2-carboxamide], for which, on VHL [1], the IC50 came out at 0.01 µM and the “Ratio cell permeability shift” value is 0.85. The molecule also returned an EC50 on VHL [2] of 0.01 µM.

For the molecule `Cc1ncsc1-c1ccc(CNC(=O)[C@@H]2C[C@@H](O)CN2C(=O)[C@@H](n2cc(C3(c4cn([C@H](C(=O)N5C[C@H](O)C[C@H]5C(=O)NCc5ccc(-c6scnc6C)cc5)C(C)(C)C)nn4)CC3)nn2)C(C)(C)C)cc1` [Compound 31, (2S,2'S,4R,4′R)-1,1′-((2S,2'S)-2,2′-(cyclopropane-1,1-diylbis(JH-1,2,3-triazole-4,1-diyl))bis(3,3-dimethylbutanoyl))bis(4-hydroxy-N-(4-(4-methylthiazol-5-yl)benzyl)pyrrolidine-2-carboxamide)], on VHL [1], the IC50 was determined as 0.31 µM and the “Ratio cell permeability shift” value came to 19.75. The molecule also yielded an EC50 on VHL [2] of 0.02 µM.

For the molecule `COC(=O)c1nnn([C@H](C(=O)N2C[C@H](O)C[C@H]2C(=O)N[C@H](Cc2ccc(-c3ccccc3)cc2)C(N)=O)C(C)C)c1C` (single isomer, unassigned) [Isomer B from Example S33], at VHL [1], the IC50 amounted to 1.62 µM and the “Ratio cell permeability shift” value came to 1.64. This molecule gave an EC50 on VHL [2] of 0.99 µM.

Take `Cc1ncsc1-c1ccc(CNC(=O)[C@@H]2C[C@@H](O)CN2C(=O)[C@@H](n2cc(C3(C)CC3)nn2)C(C)(C)C)cc1` [Example S29, (2S,4R)-1-((S)-3,3-dimethyl-2-(4-(1-methylcyclopropyl)-1H-1,2,3-triazol-1-yl)butanoyl)-4-hydroxy-N-(4-(4-methylthiazol-5-yl)benzyl)pyrrolidine-2-carboxamide]: at VHL [1], the IC50 was 0.01 µM and the “Ratio cell permeability shift” value was determined as 1.04. At VHL [2], the EC50 was 0.01 µM.

For the molecule `Cc1ncsc1-c1ccc(CNC(=O)[C@@H]2C[C@@H](O)CN2C(=O)[C@@H](n2cc(C3(C(F)(F)F)CC3)nn2)C(C)(C)C)cc1` [Example S28, (2S,4R)-1-((S)-3,3-dimethyl-2-(4-(1-(trifluoromethyl)cyclopropyl)-1H-1,2,3-triazol-1-yl)butanoyl)-4-hydroxy-N-(4-(4-methylthiazol-5-yl)benzyl)pyrrolidine-2-carboxamide], at VHL [1], the IC50 was found to be 0.04 µM and the “Ratio cell permeability shift” value came to 0.98. Moreover, the response at VHL [2] was half-maximal at 0.04 µM (EC50).

Turning to `Cc1ncsc1-c1ccc2c(c1)CCCC[C@H]2NC(=O)[C@@H]1C[C@@H](O)CN1C(=O)[C@@H](n1cc(C2CC2)nn1)C(C)(C)C` [Example S44, (2S,4R)-1-((S)-2-(4-cyclopropyl-1H-1,2,3-triazol-1-yl)-3,3-dimethylbutanoyl)-4-hydroxy-N—((R)-2-(4-methylthiazol-5-yl)-6,7,8,9-tetrahydro-5H-benzo[7]annulen-5-yl)pyrrolidine-2-carboxamide], the IC50 at VHL [1] was under 0.005 µM. Also, the EC50 on VHL [2] is under 0.005 µM.

Take `Cc1cnnn1[C@H](C(=O)N1C[C@H](O)C[C@H]1C(=O)N[C@H](Cc1ccc(-c2ccccc2)cc1)C(N)=O)C(C)C` [Example S32, (2S,4R)—N—((R)-3-([1,1′-biphenyl]-4-yl)-1-amino-1-oxopropan-2-yl)-4-hydroxy-1-((S)-3-methyl-2-(5-methyl-1H-1,2,3-triazol-1-yl)butanoyl)pyrrolidine-2-carboxamide]: on VHL [1], the IC50 stood at 5.4 µM and the “Ratio cell permeability shift” value is on record as 1.48. The same molecule came in with an EC50 on VHL [2] of 3.64 µM.

For `CC[C@H](C)[C@@H](C(=O)N1C[C@H](O)C[C@H]1C(=O)N[C@H](Cc1ccc(-c2ccccc2)cc1)C(N)=O)n1cc(C2CC2)nn1` [Example S5, (2S,4R)—N—((R)-3-([1,1′-biphenyl]-4-yl)-1-amino-1-oxopropan-2-yl)-1-((2S,3S)-2-(4-cyclopropyl-1H-1,2,3-triazol-1-yl)-3-methylpentanoyl)-4-hydroxypyrrolidine-2-carboxamide], at VHL [1], the IC50 is 0.13 µM and the “Ratio cell permeability shift” value was 0.77. This molecule showed a concentration giving a half-maximal response (EC50) at VHL [2] of 0.17 µM.

In the case of `NC(=O)[C@@H](Cc1ccc(-c2ccccc2)cc1)NC(=O)[C@@H]1C[C@@H](O)CN1C(=O)[C@@H](n1cc(C2CC2)nn1)C12CC3CC(CC(C3)C1)C2` [Example S8, (2S,4R)—N—((R)-3-([1,1′-biphenyl]-4-yl)-1-amino-1-oxopropan-2-yl)-1-((2S)-2-(adamantan-1-yl)-2-(4-cyclopropyl-1H-1,2,3-triazol-1-yl)acetyl)-4-hydroxypyrrolidine-2-carboxamide], on VHL [1], the IC50 worked out at 0.12 µM and the “Ratio cell permeability shift” value was found to be 0.73. For the same molecule, the EC50 at VHL [2] was found to be 0.16 µM.

For the molecule `Cc1ncsc1-c1ccc([C@H](C)NC(=O)[C@@H]2C[C@@H](O)CN2C(=O)[C@@H](n2cc(C3CC3)nn2)C23CC4CC(CC(C4)C2)C3)cc1` [Example S20, (2S,4R)-1-((2S)-2-(adamantan-1-yl)-2-(4-cyclopropyl-1H-1,2,3-triazol-1-yl)acetyl)-4-hydroxy-N—((S)-1-(4-(4-methylthiazol-5-yl)phenyl)ethyl)pyrrolidine-2-carboxamide], the “Ratio cell permeability shift” value at VHL [1] was determined as 0.54. This molecule also yielded an EC50 on VHL [2] of 0.01 µM.

With `C[C@@H](NC(=O)[C@@H]1C[C@@H](O)CN1C(=O)[C@@H](n1cc(C2CC2)nn1)C(C)(C)C)c1ccc(-c2ccccc2F)cc1` [Example S42, (2S,4R)-1-((S)-2-(4-cyclopropyl-1H-1,2,3-triazol-1-yl)-3,3-dimethylbutanoyl)-N—((R)-1-(2′-fluoro-[1,1′-biphenyl]-4-yl)ethyl)-4-hydroxypyrrolidine-2-carboxamide], on VHL [1], the IC50 worked out at 1.1 µM and the “Ratio cell permeability shift” value is 0.71. For the same molecule, at VHL [2], the midpoint of the response, the EC50, lay at 1.54 µM.

As for `CC(C)(C)[C@@H](C(=O)N1C[C@H](O)C[C@H]1C(=O)N[C@H](Cc1ccc(-c2ccccc2)cc1)C(N)=O)n1cc(C(=O)O)nn1` [Example S15, 1-((S)-1-((2S,4R)-2-(((R)-3-([1,1′-biphenyl]-4-yl)-1-amino-1-oxopropan-2-yl)carbamoyl)-4-hydroxypyrrolidin-1-yl)-3,3-dimethyl-1-oxobutan-2-yl)-1H-1,2,3-triazole-4-carboxylic acid], at VHL [1], the IC50 came to 69.8 µM and the “Ratio cell permeability shift” value is reported as 115.18. This molecule displayed an EC50 at VHL [2] of 0.61 µM.

In the case of `C=CC(C)(C)[C@@H](C(=O)N1C[C@H](O)C[C@H]1C(=O)N[C@H](Cc1ccc(-c2ccccc2)cc1)C(N)=O)n1cc(C2CC2)nn1` [Example S7, (2S,4R)—N—((R)-3-([1,1′-biphenyl]-4-yl)-1-amino-1-oxopropan-2-yl)-1-((S)-2-(4-cyclopropyl-1H-1,2,3-triazol-1-yl)-3,3-dimethylpent-4-enoyl)-4-hydroxypyrrolidine-2-carboxamide], at VHL [1], the IC50 came to 0.11 µM and the “Ratio cell permeability shift” value is 0.68. Also, a half-maximal response on VHL [2] (EC50) required 0.16 µM.

As for `Cc1nnn([C@H](C(=O)N2C[C@H](O)C[C@H]2C(=O)N[C@H](Cc2ccc(-c3ccccc3)cc2)C(N)=O)C(C)C)c1C` [Example S37, (2S,4R)—N—((R)-3-([1,1′-biphenyl]-4-yl)-1-amino-1-oxopropan-2-yl)-1-((S)-2-(4,5-dimethyl-1H-1,2,3-triazol-1-yl)-3-methylbutanoyl)-4-hydroxypyrrolidine-2-carboxamide], at VHL [1], the IC50 turned out to be 1.66 µM and the “Ratio cell permeability shift” value came out at 1.43. Besides, the midpoint of the response on VHL [2], the EC50, lay at 1.16 µM.

In the case of `CCC(C)(C)[C@@H](C(=O)N1C[C@H](O)C[C@H]1C(=O)N[C@H](Cc1ccc(-c2ccccc2)cc1)C(N)=O)n1cc(C2CC2)nn1` [Example S6, (2S,4R)—N—((R)-3-([1,1′-biphenyl]-4-yl)-1-amino-1-oxopropan-2-yl)-1-((S)-2-(4-cyclopropyl-1H-1,2,3-triazol-1-yl)-3,3-dimethylpentanoyl)-4-hydroxypyrrolidine-2-carboxamide], at VHL [1], the IC50 was 0.1 µM and the “Ratio cell permeability shift” value is 0.76. For the same molecule, the EC50 at VHL [2] was 0.14 µM.

As a reminder, the EC50 is the concentration at which the effect is half-maximal. High values mean a less potent agent, low ones a more potent agent.
